Molecules are shown by their SMILES.

Sequence of LRRK2 (Q5S007 970-2527 G2019S): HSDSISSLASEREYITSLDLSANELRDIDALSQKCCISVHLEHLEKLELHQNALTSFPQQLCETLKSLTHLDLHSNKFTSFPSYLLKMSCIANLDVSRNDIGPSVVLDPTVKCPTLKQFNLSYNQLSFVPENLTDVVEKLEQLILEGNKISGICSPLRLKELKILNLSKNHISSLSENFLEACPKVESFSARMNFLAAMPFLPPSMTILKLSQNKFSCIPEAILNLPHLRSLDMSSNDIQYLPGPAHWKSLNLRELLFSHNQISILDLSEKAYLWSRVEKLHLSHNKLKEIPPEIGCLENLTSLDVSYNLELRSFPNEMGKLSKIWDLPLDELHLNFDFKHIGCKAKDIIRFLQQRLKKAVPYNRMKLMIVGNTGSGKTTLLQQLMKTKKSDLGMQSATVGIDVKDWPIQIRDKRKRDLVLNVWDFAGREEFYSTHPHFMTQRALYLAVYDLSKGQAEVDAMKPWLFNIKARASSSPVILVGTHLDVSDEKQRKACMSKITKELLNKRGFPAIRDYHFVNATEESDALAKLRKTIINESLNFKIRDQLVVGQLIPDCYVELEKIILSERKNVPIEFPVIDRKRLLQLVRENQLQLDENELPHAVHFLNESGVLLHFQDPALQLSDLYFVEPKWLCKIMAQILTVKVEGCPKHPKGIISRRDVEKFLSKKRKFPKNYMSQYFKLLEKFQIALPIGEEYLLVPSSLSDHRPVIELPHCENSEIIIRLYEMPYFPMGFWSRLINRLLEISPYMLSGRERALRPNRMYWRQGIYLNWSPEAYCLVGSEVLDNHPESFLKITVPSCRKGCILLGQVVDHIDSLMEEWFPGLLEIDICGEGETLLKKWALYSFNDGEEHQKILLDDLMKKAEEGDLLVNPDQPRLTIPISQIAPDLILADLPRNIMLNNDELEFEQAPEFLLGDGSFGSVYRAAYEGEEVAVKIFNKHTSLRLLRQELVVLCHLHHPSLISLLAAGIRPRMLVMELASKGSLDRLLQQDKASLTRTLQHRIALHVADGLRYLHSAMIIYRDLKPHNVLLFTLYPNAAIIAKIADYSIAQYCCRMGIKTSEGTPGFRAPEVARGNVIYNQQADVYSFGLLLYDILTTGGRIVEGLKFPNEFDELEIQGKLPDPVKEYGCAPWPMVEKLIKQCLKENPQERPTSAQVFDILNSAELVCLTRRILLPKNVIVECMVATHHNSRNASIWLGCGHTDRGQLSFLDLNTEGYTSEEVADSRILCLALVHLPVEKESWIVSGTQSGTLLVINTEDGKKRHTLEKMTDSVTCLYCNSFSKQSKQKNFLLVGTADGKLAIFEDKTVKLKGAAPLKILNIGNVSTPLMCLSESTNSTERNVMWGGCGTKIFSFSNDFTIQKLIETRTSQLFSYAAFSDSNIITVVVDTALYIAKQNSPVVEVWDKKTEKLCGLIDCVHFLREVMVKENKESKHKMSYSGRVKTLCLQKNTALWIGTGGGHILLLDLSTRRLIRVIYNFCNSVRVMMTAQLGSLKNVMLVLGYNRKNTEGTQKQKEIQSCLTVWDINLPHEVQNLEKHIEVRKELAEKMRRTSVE

In this test the target is LRRK2 (Homo sapiens (Human), UniProt Q5S007, G2019S). Put plainly: In Vitro LRRK2 LabChip Assay (LRRK2 Ki). In kind it is biochemical. The procedure:
In Vitro LRRK2 LabChip Assay
This assay was used to determine a compound's potency in inhibiting activity of LRRK2 by determining, Kiapp, IC50, or percent inhibition values. In a polypropylene plate, LRRK2, fluorescently-labeled peptide substrate, ATP and test compound were incubated together. Using a LabChip 3000 (Caliper Life Sciences), after the reaction the substrate was separated by capillary electrophoresis into two populations: phosphorylated and unphosphorylated. The relative amounts of each were quantitated by fluorescence intensity. LRRK2 Ki was determined according to the equation: Y=V0*(1−((x+Ki*(1+S/Km)+Et)/(2*Et)−(((x+Ki*(1+S/Km)+Et)^2−(4*Et*x))^0.5)/(2*Et))). Ki values in Table 4 and elsewhere herein are shown in μM.
Assay conditions and materials used were as follows:
Kinase reaction time: 2 hours
Wild type in 5 mM MgCl2: 80 μM
Solid Support: Black 50 μL volume polypropylene 384 well plate (MatriCal cat #MP101-1-PP)
Non-binding plate: 384 well clear V-bottom polypropylene plates (Greiner cat #781280).
ATP: 10 mM ATP (Cell Signaling cat #9804).
Coating Reagent #3: Coating Reagent #3 (Caliper).
Complete Reaction Buffer: H2O/25 mM Tris, pH 8.0/5 mM MgCl2/2 mM DTT/0.01% Triton X-100.
Stop Solution: H2O/100 mM HEPES, pH 7.2/0.015% Brij-35/0.2% Coating Reagent #3/20 mM EDTA.
Separation Buffer: H2O/100 mM HEPES, pH 7.2/0.015% Brij-35/0.1% Coating Reagent #3/1:200 Coating Reagent #8/10 mM EDTA/5% DMSO.
Compound Plate Preparation:
For serial dilutions, 34.6 μl DMSO was added to columns 3-24. For the assay controls, 37.5 μl DMSO was added to columns 1 and 2 of rows A and P. a,d and 50 μl 25 μM G-028831 (Staurosporine) was added to columns 1 and 2, row B. For the samples: to start at 100 μM, 37.5 μl DMSO was to columns 1 and 2, then 12.5 μl 10 mM compound; to start at 10 μM, 78 μl DMSO was added to columns 1 & 2, then 2 μl 10 mM compound; and to start at 1 μM, 25 μM compound (2 μl 10 mM cmpd+798 μl DMSO) was added to empty columns 1 and 2. A Precision instrument was used to perform 1:3.16 serial dilutions (“PLK_BM_serial_halflog”).
ATP was diluted to 282.1 μM in Complete Kinase Buffer (final concentration was 130 μM).
Total and Blank Preparation:
In Complete Reaction Buffer, substrate was diluted to 4 μM. Equal volumes of Complete Reaction Buffer and 4 μM substrate were combined to obtain the blank. Equal volumes of Complete Reaction Buffer and 4 μM substrate were combined and to the combined solution was added 2× final LRRK2 concentration.
To a 50 μl polypropylene plate, 5 μl/well buffer/substrate was added by hand to Blank wells. A Biomek FX was used to start the kinase reaction (“PLK SAR 23 ATP”). The following were added to the appropriate wells:
5 μl/well compound/ATP in Assay Plate;
5 μl/well kinase/substrate in Assay Plate;
The plate was incubated for 2 hours in the dark. Biomek FX was used to stop the kinase reaction (“PLK Stop”), and 10 μl/well Stop solution was added to the Assay Plate. Results were read on the LabChip 3000.
The LabChip 3000 was run using the job “LRRK2 IC50” with the following job settings:
Downstream voltage: −500 V
Upstream voltage: −2350 V
Post sample buffer sip time: 75 seconds
Post dye buffer sip time: 75 seconds
Final delay time: 200 seconds
In the case of `CCS(=O)(=O)c1cc(OC)c(Nc2ncc(C(F)(F)F)c(NC)n2)cc1C` [Example 35, N2-(4-(ethylsulfonyl)-2-methoxy-5-methylphenyl)-N4-methyl-5-(trifluoromethyl)pyrimidine-2,4-diamine], the Ki stood at 3 nM.
For the compound `CNc1nc(Nc2ccc(S(C)(=O)=O)cc2OCCF)ncc1Cl` [Example 17, 5-Chloro-N2-[2-(2-fluoro-ethoxy)-4-methanesulfonyl-phenyl]-N4-methyl-pyrimidine-2,4-diamine], the Ki amounted to 12 nM.
Then `CNc1nc(Nc2ccc(S(C)(=O)=O)cc2Cl)ncc1Cl` [Example 8, 5-Chloro-N2-(2-chloro-4-methanesulfonyl-phenyl)-N4-methyl-pyrimidine-2,4-diamine], with 8 nM; and `CNc1nc(Nc2ccc(C#N)cc2OC)ncc1C(F)(F)F` [Example 4, 3-Methoxy-4-(4-(methylamino)-5-(trifluoromethyl)pyrimidin-2-ylamino)benzonitrile], with 8 nM; and `CCNc1nc(Nc2cc(F)c(CN3CCOCC3)cc2OC)ncc1C#N` [Example 12, 4-Ethylamino-2-(5-fluoro-2-methoxy-4-morpholin-4-ylmethyl-phenylamino)-pyrimidine-5-carbonitrile], with 14 nM.
In the case of `CNc1nc(Nc2cc(F)c(CN3CCOCC3)cc2OC)ncc1C#N` [Example 11, 2-(5-Fluoro-2-methoxy-4-morpholin-4-ylmethyl-phenylamino)-4-methylamino-pyrimidine-5-carbonitrile] it was 27 nM.
As for `CCNc1nc(Nc2cc(F)c(CN3CCOCC3)cc2OCCF)ncc1C(F)(F)F` [Example 22, N4-Ethyl-N2-[5-fluoro-2-(2-fluoro-ethoxy)-4-morpholin-4-ylmethyl-phenyl]-5-trifluoromethyl-pyrimidine-2,4-diamine], the inhibitory constant (Ki) is 2 nM.
As to `CNc1nc(Nc2cc(C)c(S(C)(=O)=O)cc2OC)ncc1C(F)(F)F` [Example 23, N2-(4-Methanesulfonyl-2-methoxy-5-methyl-phenyl)-N4-methyl-5-trifluoromethyl-pyrimidine-2,4-diamine], the Ki was 0.3 nM.
For `CNc1nc(Nc2cc(F)c(CN3CCOCC3)cc2OCCF)ncc1C(F)(F)F` [Example 21, N2-[5-Fluoro-2-(2-fluoro-ethoxy)-4-morpholin-4-ylmethyl-phenyl]-N4-methyl-5-trifluoromethyl-pyrimidine-2,4-diamine], affinity was put at a Ki of 4 nM.
In turn, `CNc1nc(Nc2cc(F)c(N3CCOCC3=O)cc2OC)ncc1C(F)(F)F` [Example 31, 4-(2-fluoro-5-methoxy-4-(4-(methylamino)-5-(trifluoromethyl)pyrimidin-2-ylamino)phenyl)morpholin-3-one] registered a Ki of 3 nM.
Turning to `CNc1nc(Nc2cc(F)c(CN3CCOCC3)cc2OC)ncc1C(F)(F)F` [Example 37, N2-(5-fluoro-2-methoxy-4-(morpholinomethyl)phenyl)-N4-methyl-5-(trifluoromethyl)pyrimidine-2,4-diamine], the affinity, expressed as Ki, was 56 nM.
In the case of `CNc1nc(Nc2ccc(C#N)cc2OC)ncc1Cl` [Example 5, 4-(5-Chloro-4-(methylamino)pyrimidin-2-ylamino)-3-methoxybenzonitrile] it was 8 nM; in that of `CNc1nc(Nc2cc(F)c(C#N)cc2OC)ncc1C(F)(F)F` [Example 3, 2-Fluoro-5-methoxy-4-(4-(methylamino)-5-(trifluoromethyl)pyrimidin-2-ylamino)benzonitrile], 22 nM; in that of `CNc1nc(Nc2cc(F)c(N3CCCC3=O)cc2OC)ncc1C(F)(F)F` [Example 30, 1-(2-fluoro-5-methoxy-4-(4-(methylamino)-5-(trifluoromethyl)pyrimidin-2-ylamino)phenyl)pyrrolidin-2-one], 3 nM.
In the case of `CNc1nc(Nc2cc(Cl)c(C(=O)O)cc2OC)ncc1Cl` [Example 29, 2-chloro-4-(5-chloro-4-(methylamino)pyrimidin-2-ylamino)-5-methoxybenzoic acid] it was 36 nM; in that of `COc1nc(Nc2ccc(S(C)(=O)=O)cc2Cl)ncc1Cl` [Example 6, (2-Chloro-4-methanesulfonyl-phenyl)-(5-chloro-4-methoxy-pyrimidin-2-yl)-amine], 61 nM.
With `CNc1nc(Nc2cc(C)c(S(C)(=O)=O)cc2OC)ncc1C(F)(F)F` [Example 36, N2-(2-methoxy-5-methyl-4-(methylsulfonyl)phenyl)-N4-methyl-5-(trifluoromethyl)pyrimidine-2,4-diamine], affinity was put at a Ki of 3 nM.
`CCNc1nc(Nc2ccc(S(C)(=O)=O)c3c2OCCO3)ncc1C(F)(F)F` [Example 38, N4-ethyl-N2-(8-(methylsulfonyl)-2,3-dihydrobenzo[b][1,4]dioxin-5-yl)-5-(trifluoromethyl)pyrimidine-2,4-diamine] showed a Ki of 3 nM.
Consider `CNc1nc(Nc2cc(C)c(C#N)cc2Cl)ncc1C(F)(F)F` [Example 10, 5-Chloro-2-methyl-4-(4-methylamino-5-trifluoromethyl-pyrimidin-2-ylamino)-benzonitrile], for which affinity was put at a Ki of 46 nM. Against the preceding compound, the Ki is about 15-fold higher.
In the case of `CNc1nc(Nc2cc(F)c(S(C)(=O)=O)cc2OC)ncc1C(F)(F)F` [Example 15, N2-(5-Fluoro-4-methanesulfonyl-2-methoxy-phenyl)-N4-methyl-5-trifluoromethyl-pyrimidine-2,4-diamine] it was 3 nM; in that of `COc1nc(Nc2ccc(S(C)(=O)=O)cc2OCCF)ncc1Cl` [Example 18, (5-Chloro-4-methoxy-pyrimidin-2-yl)-[2-(2-fluoro-ethoxy)-4-methanesulfonyl-phenyl]-amine], 12 nM.
With `CNc1nc(Nc2ccc(S(C)(=O)=O)cc2OC)ncc1Cl` [Example 2, 5-Chloro-N2-(2-methoxy-4-(methylsulfonyl)phenyl)-N4-methylpyrimidine-2,4-diamine], the affinity, expressed as Ki, was 2 nM. This Ki lies about 6-fold lower than the previous one.
In turn, `CNc1nc(Nc2ccc(C(F)(F)F)cc2OC)ncc1Cl` [Example 28, 5-chloro-N2-(2-methoxy-4-(trifluoromethyl)phenyl)-N4-methylpyrimidine-2,4-diamine] gave a Ki of 35 nM.
Take `CNc1nc(Nc2ccc(S(C)(=O)=O)cc2OCCF)ncc1C(F)(F)F` [Example 19, N2-[2-(2-Fluoro-ethoxy)-4-methanesulfonyl-phenyl]-N4-methyl-5-trifluoromethyl-pyrimidine-2,4-diamine]: the affinity, expressed as Ki, was 3 nM.
In the case of `CNc1nc(Nc2cc(F)c(C3COC3)cc2OC)ncc1C(F)(F)F` [Example 33, N2-(5-fluoro-2-methoxy-4-(oxetan-3-yl)phenyl)-N4-methyl-5-(trifluoromethyl)pyrimidine-2,4-diamine], the Ki amounted to 3 nM.
`CNc1nc(Nc2ccc(S(=O)(=O)N3CCOCC3)cc2OC)ncc1C(F)(F)F` [Example 26, N2-(2-methoxy-4-(morpholinosulfonyl)phenyl)-N4-methyl-5-(trifluoromethyl)pyrimidine-2,4-diamine] came in with a Ki of 47 nM.
For the compound `CNc1nc(Nc2ccc(S(C)(=O)=O)cc2OC)ncc1C(F)(F)F` [Example 1, N2-(2-Methoxy-4-(methylsulfonyl)phenyl)-N4-methyl-5-(trifluoromethyl)pyrimidine-2,4-diamine], the affinity, expressed as Ki, was 2 nM.
For `CNc1nc(Nc2cc(Cl)c(S(C)(=O)=O)cc2OC)ncc1C(F)(F)F` [Example 20, N2-(5-Chloro-4-methanesulfonyl-2-methoxy-phenyl)-N4-methyl-5-trifluoromethyl-pyrimidine-2,4-diamine], the Ki was determined as 1 nM.
Then `CCNc1nc(Nc2cc(C)c(S(C)(=O)=O)cc2OC)ncc1C(F)(F)F` [Example 34, N4-ethyl-N2-(2-methoxy-5-methyl-4-(methylsulfonyl)phenyl)-5-(trifluoromethyl)pyrimidine-2,4-diamine], with 3 nM.

The values above are taken from patent US9145402B2, “Aminopyrimidine derivatives as LRRK2 modulators” (Genentech, Inc., priority 2011, dated 2015).
